According to US20150125589A1, “TASTE-IMPROVING AGENT AND FOOD OR DRINK CONTAINING SAME” (NIPPON SUISAN KAISHA, LTD., priority 2011, published 2015):

Experiments:
[1] = Evaluation method 2: quantitating improvement of unpleasant flavor of potassium chloride as K/Na ratio against standard solutions, chicken stock soup; conditions: for improvement effect against the unpleasant flavor of potassium chloride: glycoside or aglycone 25 ppm final in standard solution 8, FIG. 17
Experimental: 1.32 g of Chinese soup stock granules (product name=“Marudori-gara Soup”, manufactured by Ajinomoto K.K., standard nutritional ingredients of 2.5 g of Chinese soup stock granules are shown in Table 1) was dissolved in 70 g of distilled water, and the mixture was filtered through filter paper (filter paper no. 2, manufactured by Advantec Toyo K.K.). Thereafter, 0.63 g of NaCl was added, and water was further added to obtain 100 g of chicken stock soup containing an equivalent of 1.26 percent table salt (Table 2, standard solution 1). The concentration of sodium chloride was decreased in a stepwise manner from the composition of the standard solution 1, and potassium chloride was added to produce multiple chicken stock soups (Table 2, standard solutions 2 to 8). The ratio of potassium chloride to sodium chloride ((potassium chloride concentration/sodium chloride concentration)×100(%), referred to hereinafter as “K/Na ratio”) was changed in standard solutions 1 to 8, and the intensity of the unpleasant flavor (i.e. bitterness, astringent taste, harsh taste, and bitter taste) characteristic of potassium chloride increased as the K/Na ratio value increased. The unpleasant flavor intensity increased in a stepwise manner for standard solutions 1 to 8. Intensity of this unpleasant flavor and detailed taste were evaluated by organoleptic evaluation by an expert panel, and results of evaluation were classified in three stages, i.e. initial taste, middle taste, and aftertaste.
A desired concentration of test solution was added to one of the standard solutions of Table 2 to produce an evaluation solution. At this time, for a test sample containing sodium chloride or potassium chloride, the evaluation solution was adjusted such that the total sodium chloride concentration or total potassium chloride concentration of the evaluation solution was equivalent to the respective standard solution. The standard solutions 1 to 8 of Table 2 are indicated in order of potassium chloride concentration. These evaluation solutions were compared to the standard solution, and the corresponding unpleasant flavor of potassium chloride was expressed as a K/Na ratio. The improvement effect was indicated as higher as the ratio of K/Na ratio obtained by evaluation to actual K/Na ratio decreased.

[2] = Evaluation method 1: expert panel ranking of potassium chloride unpleasant flavor intensity (normalized rank method), chicken stock soup; conditions: for effect of phospholipid for improvement of unpleasant flavor of potassium chloride: phospholipid 0.02 percent in standard solution 8, FIG. 21
[3] = Unpleasant taste distinguishable concentration of potassium chloride, blind ranking by panel; conditions: chicken stock soup models, panel n=11; FIG. 28
Experimental: 1.32 g of Chinese soup stock granules (product name=“Marudori-gara Soup”, manufactured by Ajinomoto K.K., standard nutritional ingredients of 2.5 g of Chinese soup stock granules are shown in Table 1) was dissolved in 70 g of distilled water, and the mixture was filtered through filter paper (filter paper no. 2, manufactured by Advantec Toyo K.K.). Thereafter, 0.63 g of NaCl was added, and water was further added to obtain 100 g of chicken stock soup containing an equivalent of 1.26 percent table salt (Table 2, standard solution 1). The concentration of sodium chloride was decreased in a stepwise manner from the composition of the standard solution 1, and potassium chloride was added to produce multiple chicken stock soups (Table 2, standard solutions 2 to 8). […] Intensity of this unpleasant flavor and detailed taste were evaluated by organoleptic evaluation by an expert panel, and results of evaluation were classified in three stages, i.e. initial taste, middle taste, and aftertaste.
Standard solutions 1 to 7 (with the exception of standard solution 2) were evaluated by a panel (n=11) by blind-testing to determine the order of potassium chloride unpleasant flavor intensity.

Molecule	improvement effect against the unpleasant flavor of potassium chloride [1]	effect of phospholipid for improvement of unpleasant flavor of potassium chloride [2]	further results
O=c1cc(-c2ccc(O)cc2)oc2cc(O[C@@H]3O[C@H](CO)[C@@H](O)[C@H](O)[C@H]3O)cc(O)c12 [apigenin 7-glucoside, Apigenin 7-glucoside]	high effect	–	–
O=c1cc(-c2ccc(O)cc2)oc2cc(O)cc(O)c12 [apigenin, Apigenin]	high effect	–	–
O=c1c(-c2ccc(O)cc2)coc2cc(O[C@@H]3O[C@H](CO)[C@@H](O)[C@H](O)[C@H]3O)ccc12 [daidzin, Daidzin]	high effect	–	–
O=c1cc(-c2ccc(O)cc2)oc2cc(O[C@@H]3O[C@H](CO)[C@@H](O)[C@H](O)[C@H]3O[C@@H]3OC[C@](O)(CO)[C@H]3O)cc(O)c12 [fraction 13, apiin]	particularly high effect	–	unpleasant flavor improvement effect of parsley extract fraction relative to its parent solution ([2]; fraction aqueous solution added at 15 percent by weight to standard solution 8, FIG. 12-15): equivalent to that of the evaluation solution 9; added amount at which near maximum unpleasant flavor improvement effect was reached ([1]; 25, 50, 125, 250 ppm in standard solution 8, FIG. 16): ≥ 125 ppm
C[C@@H]1O[C@@H](O[C@H]2[C@H](Oc3cc(O)c4c(c3)O[C@H](c3ccc(O)cc3)CC4=O)O[C@H](CO)[C@@H](O)[C@@H]2O)[C@H](O)[C@H](O)[C@H]1O [naringin, Naringin, reference compound]	improvement effect was not found	–	–
[Cl-].[K+] [potassium chloride]	–	–	K/Na ratio at which unpleasant flavor of potassium chloride was not generally recognized [3]: less than or equal to 57%
Phosphatidic acid [PA, reference compound]	–	low	–
Phosphatidylcholine [PC]	–	high effects	–
Phosphatidylethanolamine [PE]	–	high effects	–
Phosphatidylinositol [PI]	–	high effects	–
Phosphatidylserine [PS]	–	high effects	–
